Data: US10954228B2 (NATIONAL INSTITUTES OF HEALTH, UNITED STATES DEPARTMENT OF …, priority 2016, dated 2021)

How the values were obtained:
Human LDHA = Human LDHA (Homo sapiens (Human), UniProt P00338); experiment: human LDHA primary biochemical assay; conditions: biochemical LDHA inhibitory activity, assay of Example 1; activity level classes defined in nM
Method in brief: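 Human LDHA at 2 nM with 0.06 mM NADH and 0.2 mM sodium pyruvate in 200 mM Tris HCl pH 7.4, 100 μM EDTA, 0.01% TWEEN-20 (final). NADH consumption coupled to resazurin/diaphorase (0.037 mM; 0.133 mg/mL); inhibition read by fluorescence.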

MiaPaCa2 cells = experiment: cell-based HT lactate assay by colorimetric/fluorometric detection (cellular inhibition of lactate production)
Description: This example describes a cell-based metabolite assay by colorimetric/fluorometric detection employed in the characterization of a compound of formula (I) in an embodiment of the invention.
Cell-based HT Lactate assay is a miniaturized Biovision Lactate Colorimetric/Fluorometric Assay Kit (Cat #K607-100). The assay is roughly a 3.5 hour assay run in a 1536 plate format. Cell number optimization should be run for each cell line to achieve an optimal number in which lactate production equals roughly 90% of the standard curve range. Cell number per well optimization has been performed with the following cell lines: MiaPaCa2—500 cells/well, SNU398—500 cells/well, and P493—500 cells/well.

[1] = Homo sapiens, MIA PaCa-2, assay of Example 6

SMILES	IC50 (Human LDHA) [nM]	IC50 (MiaPaCa2 cells; [1]) [nM]	IC50 (MiaPaCa2 cells; assay of Example 6) [nM]
NS(=O)(=O)c1ccc(Cc2c(-c3cccc(C#Cc4ccc(C5CC5)s4)c3)nn(-c3nc(C(=O)O)cs3)c2CC2CC2)cc1F [Compound 117, 2-(5-(cyclopropylmethyl)-3-(3-((5-cyclopropylthiophen-2-yl)ethynyl)phenyl)-4-(3-fluoro-4-sulfamoylbenzyl)-1H-pyrazol-1-yl)thiazole-4-carboxylic acid]	100 to 1000	< 1000	
NS(=O)(=O)c1ccc(Cc2c(-c3cccc(C#Cc4ccc(C(F)(F)F)s4)c3)nn(-c3nc(C(=O)O)cs3)c2CC2CC2)cc1F [Compound 124, 2-(5-(cyclopropylmethyl)-4-(3-fluoro-4-sulfamoylbenzyl)-3-(3-((5-(trifluoromethyl)thiophen-2-yl)ethynyl)phenyl)-1H-pyrazol-1-yl)thiazole-4-carboxylic acid]	100 to 1000	< 1000	
CC(C)c1ccc(C#Cc2cccc(-c3nn(-c4nc(C(=O)O)cs4)c(CC4CC4)c3Cc3ccc(S(N)(=O)=O)c(F)c3)c2)s1 [Compound 127, 2-(5-(cyclopropylmethyl)-4-(3-fluoro-4-sulfamoylbenzyl)-3-(3-((5-isopropylthiophen-2-yl)ethynyl)phenyl)-1H-pyrazol-1-yl)thiazole-4-carboxylic acid]	100 to 1000	< 1000	
Cc1ccc(C#Cc2cccc(-c3nn(-c4nc(C(=O)O)cs4)c(CC4CC4)c3Cc3ccc(S(N)(=O)=O)c(F)c3)c2)o1 [Compound 129, 2-(5-(cyclopropylmethyl)-4-(3-fluoro-4-sulfamoylbenzyl)-3-(3-((5-methylfuran-2-yl)ethynyl)phenyl)-1H-pyrazol-1-yl)thiazole-4-carboxylic acid]	< 100	< 1000	
Cc1ccc(C2CC2c2cccc(-c3nn(-c4nc(C(=O)O)cs4)c(CC4CC4)c3Cc3ccc(S(N)(=O)=O)c(F)c3)c2)s1 (centres unmarked) [Compound 130, 2-(5-(cyclopropylmethyl)-4-(3-fluoro-4-sulfamoylbenzyl)-3-(3-(2-(5-methylthiophen-2-yl)cyclopropyl)phenyl)-1H-pyrazol-1-yl)thiazole-4-carboxylic acid]	< 100	< 1000	
Cc1ccc(C#Cc2cccc(-c3nn(-c4nc(C(=O)O)cs4)c(C4CC45CC5)c3Cc3ccc(S(N)(=O)=O)c(F)c3)c2)s1 (centres unmarked) [Compound 131, 2-(4-(3-fluoro-4-sulfamoylbenzyl)-3-(3-((5-methylthiophen-2-yl)ethynyl)phenyl)-5-(spiro[2.2]pentan-1-yl)-1H-pyrazol-1-yl)thiazole-4-carboxylic acid]	< 100	< 1000	
Cc1ccc([C@H]2C[C@@H](c3cccc(-c4nn(-c5nc(C(=O)O)cs5)c(CC5CC5)c4Cc4ccc(S(N)(=O)=O)c(F)c4)c3)C2)s1 [Compound 132, 2-(5-(cyclopropylmethyl)-4-(3-fluoro-4-sulfamoylbenzyl)-3-(3-((cis)-3-(5-methylthiophen-2-yl)cyclobutyl)phenyl)-1H-pyrazol-1-yl)thiazole-4-carboxylic acid]	< 100	< 1000	
Cc1ccc(C2CC(c3cccc(-c4nn(-c5nc(C(=O)O)cs5)c(CC5CC5)c4Cc4ccc(S(N)(=O)=O)c(F)c4)c3)C2)s1 (centres unmarked) [Compound 133, 2-(5-(cyclopropylmethyl)-4-(3-fluoro-4-sulfamoylbenzyl)-3-(3-(3-(5-methylthiophen-2-yl)cyclobutyl)phenyl)-1H-pyrazol-1-yl)thiazole-4-carboxylic acid]	< 100		< 1000
Cc1ccc(-c2cc(-c3nn(-c4nc(C(=O)O)cs4)c(CC4CC4)c3Cc3ccc(S(N)(=O)=O)c(F)c3)ccc2F)cc1F [Compound 137, 2-(5-(cyclopropylmethyl)-3-(3′,6-difluoro-4′-methyl-[1,1′-biphenyl]-3-yl)-4-(3-fluoro-4-sulfamoylbenzyl)-1H-pyrazol-1-yl)thiazole-4-carboxylic acid]	< 100	< 1000	
NS(=O)(=O)c1ccc(Cc2c(-c3ccc(F)c(-c4ccc(C(F)(F)F)cc4)c3)nn(-c3nc(C(=O)O)cs3)c2CC2CC2)cc1F [Compound 138, 2-(5-(cyclopropylmethyl)-3-(6-fluoro-4′-(trifluoromethyl)-[1,1′-biphenyl]-3-yl)-4-(3-fluoro-4-sulfamoylbenzyl)-1H-pyrazol-1-yl)thiazole-4-carboxylic acid]	< 100	< 1000	
NS(=O)(=O)c1ccc(Cc2c(-c3ccc(F)c(-c4ccc(Cl)cc4)c3)nn(-c3nc(C(=O)O)cs3)c2CC2CC2)cc1F [Compound 139, 2-(3-(4′-chloro-6-fluoro-[1,1′-biphenyl]-3-yl)-5-(cyclopropylmethyl)-4-(3-fluoro-4-sulfamoylbenzyl)-1H-pyrazol-1-yl)thiazole-4-carboxylic acid]	< 100	< 1000	
Cc1cccc(-c2cc(-c3nn(-c4nc(C(=O)O)cs4)c(CC4CC4)c3Cc3ccc(S(N)(=O)=O)c(F)c3)ccc2F)c1 [Compound 141]	< 100		< 1000
NS(=O)(=O)c1ccc(Cc2c(-c3ccc(F)c(-c4ccc5c(c4)CCCC5)c3)nn(-c3nc(C(=O)O)cs3)c2CC2CC2)cc1F [Compound 143, 2-(5-(cyclopropylmethyl)-3-(4-fluoro-3-(5,6,7,8-tetrahydronaphthalen-2-yl)phenyl)-4-(3-fluoro-4-sulfamoylbenzyl)-1H-pyrazol-1-yl)thiazole-4-carboxylic acid]	< 100	< 1000	
NS(=O)(=O)c1ccc(Cc2c(-c3ccc(F)c(-c4ccc(Cl)c(F)c4)c3)nn(-c3nc(C(=O)O)cs3)c2CC2CC2)cc1F [Compound 144, 2-(3-(4′-chloro-3′,6-difluoro-[1,1′-biphenyl]-3-yl)-5-(cyclopropylmethyl)-4-(3-fluoro-4-sulfamoylbenzyl)-1H-pyrazol-1-yl)thiazole-4-carboxylic acid]	< 100	< 1000	
NS(=O)(=O)c1ccc(Cc2c(-c3ccc(F)c(C4=CCCCC4)c3)nn(-c3nc(C(=O)O)cs3)c2CC2CC2)cc1F [Compound 146, 2-(5-(cyclopropylmethyl)-3-(6-fluoro-2′,3′,4′,5′-tetrahydro-[1,1′-biphenyl]-3-yl)-4-(3-fluoro-4-sulfamoylbenzyl)-1H-pyrazol-1-yl)thiazole-4-carboxylic acid]	< 100	< 1000	

Second part, led by results:

IC50 (Human LDHA) [nM]	IC50 (MiaPaCa2 cells; [1]) [nM]	SMILES	IC50 (MiaPaCa2 cells; assay of Example 6) [nM]
< 100	< 1000	NS(=O)(=O)c1ccc(Cc2c(-c3cccc(C#Cc4ccc(Cl)s4)c3)nn(-c3nc(C(=O)O)cs3)c2CC2CC2)cc1F [Compound 118, 2-(3-(3-((5-chlorothiophen-2-yl)ethynyl)phenyl)-5-(cyclopropylmethyl)-4-(3-fluoro-4-sulfamoylbenzyl)-1H-pyrazol-1-yl)thiazole-4-carboxylic acid]	
< 100	< 1000	Cc1ccc(/C=C/c2cccc(-c3nn(-c4nc(C(=O)O)cs4)c(CC4CC4)c3Cc3ccc(S(N)(=O)=O)c(F)c3)c2)s1 [Compound 119, (E)-2-(5-(cyclopropylmethyl)-4-(3-fluoro-4-sulfamoylbenzyl)-3-(3-(2-(5-methylthiophen-2-yl)vinyl)phenyl)-1H-pyrazol-1-yl)thiazole-4-carboxylic acid]	
< 100	< 1000	Cc1ccsc1C#Cc1cccc(-c2nn(-c3nc(C(=O)O)cs3)c(CC3CC3)c2Cc2ccc(S(N)(=O)=O)c(F)c2)c1 [Compound 120, 2-(5-(cyclopropylmethyl)-4-(3-fluoro-4-sulfamoylbenzyl)-3-(3-((3-methylthiophen-2-yl)ethynyl)phenyl)-1H-pyrazol-1-yl) thiazole-4-carboxylic acid]	
< 100	< 1000	NS(=O)(=O)c1ccc(Cc2c(-c3cccc(C#Cc4ccc(C(F)F)s4)c3)nn(-c3nc(C(=O)O)cs3)c2CC2CC2)cc1F [Compound 121, 2-(5-(cyclopropylmethyl)-3-(3-((5-(difluoromethyl)thiophen-2-yl)ethynyl)phenyl)-4-(3-fluoro-4-sulfamoylbenzyl)-1H-pyrazol-1-yl)thiazole-4-carboxylic acid]	
< 100	< 1000	Cc1cnc(C#Cc2cccc(-c3nn(-c4nc(C(=O)O)cs4)c(CC4CC4)c3Cc3ccc(S(N)(=O)=O)c(F)c3)c2)o1 [Compound 122, 2-(5-(cyclopropylmethyl)-4-(3-fluoro-4-sulfamoylbenzyl)-3-(3-((5-methyloxazol-2-yl)ethynyl)phenyl)-1H-pyrazol-1-yl)thiazole-4-carboxylic acid]	
< 100	< 1000	Cc1ccc(C#Cc2cccc(-c3nn(-c4nc(C(=O)O)cs4)c(CC4(C)CC4)c3Cc3ccc(S(N)(=O)=O)c(F)c3)c2)s1 [Compound 123, 2-(4-(3-fluoro-4-sulfamoylbenzyl)-5-((1-methylcyclopropyl)methyl)-3-(3-((5-methylthiophen-2-yl)ethynyl)phenyl)-1H-pyrazol-1-yl)thiazole-4-carboxylic acid]	
< 100	< 1000	Cc1cc(C)c(C#Cc2cccc(-c3nn(-c4nc(C(=O)O)cs4)c(CC4CC4)c3Cc3ccc(S(N)(=O)=O)c(F)c3)c2)s1 [Compound 125, 2-(5-(cyclopropylmethyl)-3-(3-((3,5-dimethylthiophen-2-yl)ethynyl)phenyl)-4-(3-fluoro-4-sulfamoylbenzyl)-1H-pyrazol-1-yl) thiazole-4-carboxylic acid]	
